Earlier results on 1 compound are cited in patent US6368616B1, “Aqueous suspension for nasal administration of loteprednol” (Senju Pharmaceutical Co., Ltd., priority 1997, dated 2002).

As for `CCOC(=O)O[C@]1(C(=O)OCCl)CC[C@H]2[C@@H]3CCC4=CC(=O)C=C[C@]4(C)[C@H]3[C@@H](O)C[C@@]21C` [loteprednol etabonate, Loteprednol etabonate], the solubility in water entry is reported as “substantially insoluble in water”.
